# Data taken from patent US10463710B2, “Short synthetic peptide for the treatment and/or prophylaxis of autoimmune and inflammatory disorders” (MacKay Memorial Hospital, priority 2015, dated 2019).
# Columns and labels:
# [1] = system: HOCl-induced skin fibrosis; test: Mouse model of HOCl-induced systemic sclerosis (skin fibrosis); assay type: in vivo, BALB/c mice
# Experimental: Induction of SSc have been successfully established by subcutaneously injection with prooxidative agents (e.g., hypochlorous acid, HOCl) in BALB/c mice every day for 6 weeks (Servettaz A et al., J Immuno. 2009; 182: 5855).
# To produce HOCl, 166 μl of NaClO solution (2.6% as active chlorine) was added to 11.1 ml of KH2PO4 solution (100 mM; pH 7.2). The concentration of HOCl was determined by spectrophotometry at 292 nm (molar absorption coefficient 350 M^−1 cm^−1). Female BALB/c mice (6 weeks old) were randomly distributed into experimental and control groups (n=6 per group). A total of 100 μl of HOCl solution mixed with 7-mer vehicle or 7-mer (final concentration 0.2 mM) was injected subcutaneously into the shaved back of the mice, using a 27-gauge needle, every day for 6 wks. Subcutaneous injection of phosphate-buffered saline (PBS) was served as normal control. Mice were euthanized and their skins were harvested, fixed overnight in 4% paraformaldehyde and embedded in paraffin. […]
# Approximately 20% skin homogenate was used to determine the levels of soluble collagen. The collagen levels were quantified using a Sircol™ soluble collagen assay (Biocolor Ltd., Newtownabbey) according to the manufacturer's protocols. […] Relative absorbance was measured at 540 nm. […]
# [2] = system: OVA-induced allergic conjunctivitis; test: Mouse model of OVA-induced allergic conjunctivitis; assay type: in vivo, BALB/c mice; conditions: 7-mer 100 μM eye drop twice a day for 4 days, FIG. 5C
# Experimental: BALB/c mice (4- to 5-weeks old females) were sensitized intraperitoneally with 1 μg of ovalbumin (OVA) and 200 μl of 1.5% aluminum hydroxide (ALUM) on days 0 and 7, respectively; and then challenged two times topically in the conjunctival sac with 250 μg of OVA respectively on days 15 and 18. Control mice were given OVA with ALUM in sensitization stages, and PBS in place of OVA in challenge stages. For treatment, 7-mer was mixed with 1% CMC eye drop to a concentration 100 μM. After the OVA challenge (day 15), the mice were randomly assigned to two experimental groups (n=6 per group) and the eye was treated with 20 μl of 7-mer or vehicle eye drop twice a day for 4 days (to day 18). Twenty-four hrs after the final challenge with OVA (day 19), mice were euthanized and their eyes were harvested, fixed overnight in 4% paraformaldehyde and embedded in paraffin. To evaluate the eosinophilic infiltration, sections (5 μm) including eyelids were de-paraffinized and stained with acid-giemsa for detection of eosinophils.
# Allergic conjunctivitis (AC) is characterized by conjunctival eosinophilic infiltration. […]
smiles,measurement,setting,value
"CC(=O)N[C@@H](CC(=O)O)C(=O)N[C@@H](CC(C)C)C(=O)N[C@@H](Cc1ccc(O)cc1)C(=O)N[C@@H](CCCNC(=N)N)C(=O)N[C@H](C(=O)N[C@@H](CCCNC(=N)N)C(=O)N[C@@H](CO)C(N)=O)C(C)C [7-mer, NH2-Asp-Leu-Tyr-Arg-Val-Arg-Ser-COOH]",level of dermal collagen (Masson's trichrome),"[1]; 7-mer 0.2 mM s.c. with HOCl daily for 6 wks, vs HOCl/vehicle, FIG. 3A",significant decrease
same,collagen content of skin,"[1]; 7-mer treated SSc mice, HOCl-treated SSc mice 169.9±7.75, FIG. 3B",99.0±5.43 μg collagen/mg skin
same,infiltration of eosinophils in the conjunctiva,[2],decreased significantly
